Assay results taken from the NIST ThermoML archive (doi:10.1016/j.jct.2018.01.019).

Experiment: molar heat capacity at constant pressure
Conditions: 101.33 kPa, Small sample (50 mg) DSC

O=[Si]=O [silicon dioxide]
Conditions | molar heat capacity at constant pressure [J/K/mol]
794.62 K, Crystal 2 | 71.82
794.79 K, Crystal 2 | 71.62
794.95 K, Crystal 2 | 71.49
795.12 K, Crystal 2 | 71.46
795.29 K, Crystal 2 | 71.47
795.45 K, Crystal 2 | 71.5
795.62 K, Crystal 2 | 71.77
795.78 K, Crystal 2 | 71.9
795.95 K, Crystal 2 | 71.83
796.12 K, Crystal 2 | 71.66
796.29 K, Crystal 2 | 71.81
796.46 K, Crystal 2 | 72.04
796.62 K, Crystal 2 | 72.01
796.79 K, Crystal 2 | 71.86
796.96 K, Crystal 2 | 71.68
797.12 K, Crystal 2 | 71.48
797.29 K, Crystal 2 | 71.6
797.46 K, Crystal 2 | 71.73
797.62 K, Crystal 2 | 71.68
797.79 K, Crystal 2 | 71.65
797.96 K, Crystal 2 | 71.81
798.13 K, Crystal 2 | 71.82
798.29 K, Crystal 2 | 71.7
798.46 K, Crystal 2 | 71.81
798.62 K, Crystal 2 | 71.8
798.79 K, Crystal 2 | 71.9
798.96 K, Crystal 2 | 72.09
799.12 K, Crystal 2 | 72
799.29 K, Crystal 2 | 71.85
799.46 K, Crystal 2 | 71.85
799.62 K, Crystal 2 | 71.85
799.79 K, Crystal 2 | 71.96
799.96 K, Crystal 2 | 72.13
800.12 K, Crystal 2 | 72.26
800.29 K, Crystal 2 | 72.07
800.46 K, Crystal 2 | 71.86
800.63 K, Crystal 2 | 72
800.79 K, Crystal 2 | 72.09
800.96 K, Crystal 2 | 72.12
801.12 K, Crystal 2 | 72.16
801.29 K, Crystal 2 | 71.98
801.46 K, Crystal 2 | 71.96
801.63 K, Crystal 2 | 71.86
801.79 K, Crystal 2 | 71.9
801.96 K, Crystal 2 | 71.86
802.12 K, Crystal 2 | 71.92
802.29 K, Crystal 2 | 71.92
802.46 K, Crystal 2 | 72.04
802.62 K, Crystal 2 | 72.2
802.79 K, Crystal 2 | 72.1
802.96 K, Crystal 2 | 71.91
803.12 K, Crystal 2 | 71.68
803.29 K, Crystal 2 | 71.76
803.46 K, Crystal 2 | 71.76
803.63 K, Crystal 2 | 71.8
803.79 K, Crystal 2 | 72.11
803.96 K, Crystal 2 | 72.29
804.13 K, Crystal 2 | 72.1
804.29 K, Crystal 2 | 71.93
804.46 K, Crystal 2 | 71.94
804.62 K, Crystal 2 | 71.92
804.79 K, Crystal 2 | 71.93
804.96 K, Crystal 2 | 72.09
805.13 K, Crystal 2 | 72.17
805.29 K, Crystal 2 | 72.03
805.46 K, Crystal 2 | 72.03
805.63 K, Crystal 2 | 72
805.79 K, Crystal 2 | 72.07
805.96 K, Crystal 2 | 72.1
806.13 K, Crystal 2 | 72.19
806.29 K, Crystal 2 | 72.25
806.46 K, Crystal 2 | 72.37
806.63 K, Crystal 2 | 72.33
806.79 K, Crystal 2 | 72.24
806.96 K, Crystal 2 | 72.08
807.13 K, Crystal 2 | 71.96
807.3 K, Crystal 2 | 71.9
807.47 K, Crystal 2 | 72.16
807.63 K, Crystal 2 | 72.29
807.8 K, Crystal 2 | 72.39
807.97 K, Crystal 2 | 72.54
808.13 K, Crystal 2 | 72.48
808.3 K, Crystal 2 | 72.36
808.47 K, Crystal 2 | 72.31
808.64 K, Crystal 2 | 72.39
808.81 K, Crystal 2 | 72.34
808.97 K, Crystal 2 | 72.47
809.14 K, Crystal 2 | 72.61
809.3 K, Crystal 2 | 72.59
809.47 K, Crystal 2 | 72.53
809.64 K, Crystal 2 | 72.6
809.8 K, Crystal 2 | 72.59
809.97 K, Crystal 2 | 72.54
855 K, Crystal 1 | 69.38
855.17 K, Crystal 1 | 69.28
855.33 K, Crystal 1 | 69.26
855.5 K, Crystal 1 | 69.13
855.67 K, Crystal 1 | 69.16
855.83 K, Crystal 1 | 69.22
856 K, Crystal 1 | 69.21
856.16 K, Crystal 1 | 69.11
856.33 K, Crystal 1 | 69.06
856.5 K, Crystal 1 | 68.99
856.66 K, Crystal 1 | 68.93
856.83 K, Crystal 1 | 68.69
857 K, Crystal 1 | 68.5
857.17 K, Crystal 1 | 68.55
857.34 K, Crystal 1 | 68.66
857.51 K, Crystal 1 | 68.7
857.68 K, Crystal 1 | 68.71
857.84 K, Crystal 1 | 68.75
858.01 K, Crystal 1 | 68.66
858.17 K, Crystal 1 | 68.56
858.34 K, Crystal 1 | 68.6
858.51 K, Crystal 1 | 68.58
858.68 K, Crystal 1 | 68.63
858.84 K, Crystal 1 | 68.51
859.01 K, Crystal 1 | 68.34
859.18 K, Crystal 1 | 68.29
859.34 K, Crystal 1 | 68.29
859.51 K, Crystal 1 | 68.3
859.68 K, Crystal 1 | 68.35
859.84 K, Crystal 1 | 68.21
860.01 K, Crystal 1 | 68.03
860.18 K, Crystal 1 | 68.14
860.34 K, Crystal 1 | 68.2
860.51 K, Crystal 1 | 68.18
860.67 K, Crystal 1 | 68.22
860.84 K, Crystal 1 | 68.32
861.01 K, Crystal 1 | 68.41
861.17 K, Crystal 1 | 68.37
861.34 K, Crystal 1 | 68.49
861.51 K, Crystal 1 | 68.55
861.67 K, Crystal 1 | 68.37
861.84 K, Crystal 1 | 68.37
862.01 K, Crystal 1 | 68.4
862.18 K, Crystal 1 | 68.4
862.34 K, Crystal 1 | 68.53
862.51 K, Crystal 1 | 68.5
862.68 K, Crystal 1 | 68.45
862.84 K, Crystal 1 | 68.5
863.01 K, Crystal 1 | 68.42
863.18 K, Crystal 1 | 68.35
863.35 K, Crystal 1 | 68.3
863.51 K, Crystal 1 | 68.21
863.68 K, Crystal 1 | 68.19
863.85 K, Crystal 1 | 68.28
864.01 K, Crystal 1 | 68.44
864.18 K, Crystal 1 | 68.48
864.34 K, Crystal 1 | 68.4
864.51 K, Crystal 1 | 68.29
864.68 K, Crystal 1 | 68.37
864.84 K, Crystal 1 | 68.59
865.01 K, Crystal 1 | 68.52
865.18 K, Crystal 1 | 68.35
865.34 K, Crystal 1 | 68.39
865.5 K, Crystal 1 | 68.4
865.67 K, Crystal 1 | 68.46
865.84 K, Crystal 1 | 68.59
866.01 K, Crystal 1 | 68.64
866.18 K, Crystal 1 | 68.69
866.35 K, Crystal 1 | 68.59
866.51 K, Crystal 1 | 68.39
866.67 K, Crystal 1 | 68.35
866.84 K, Crystal 1 | 68.26
867.01 K, Crystal 1 | 68.21
867.17 K, Crystal 1 | 68.25
867.34 K, Crystal 1 | 68.38
867.51 K, Crystal 1 | 68.37
867.67 K, Crystal 1 | 68.45
867.84 K, Crystal 1 | 68.49
868.01 K, Crystal 1 | 68.4
868.18 K, Crystal 1 | 68.35
868.34 K, Crystal 1 | 68.32
868.51 K, Crystal 1 | 68.4
868.68 K, Crystal 1 | 68.45
868.85 K, Crystal 1 | 68.49
869.01 K, Crystal 1 | 68.43
